Test results: US10543199B2, “Macrocycle and composition comprising thereof” (Shenzhen TargetRx, Inc., priority 2016, dated 2020)

Experiments:
[1] = tested on: cancer cells expressing the ALK mutant L1196M; assay: Cytotoxicity experiments, growth of cells expressing ALK mutant L1196M; format: cell-based, murine; details: two days incubation
[2] = tested on: BaF3-NPM-ALK cells (ALK WT); assay: Cytotoxicity experiments, growth of BaF3-NPM-ALK cells, ALK WT; format: cell-based, murine; details: two days incubation
Description: Cytotoxicity Experiments.
The cell line that can be used in the assay is Ba/F3, a murine pro-B cell line that has been stably transfected with the expression vector pClneo™ (Promega Corp., Madison Wis.) encoding NPM-ALK and subsequently G418-resistent cells were selected. The inhibitory activity of the compounds of Formula I can be determined as follows: BaF3-NPM-ALK cells (15000/well in a microtiter plate) were transferred to a 96-well microtiter plate. Test compounds (dissolved in DMSO) were then added in a series of concentrations (serial dilutions) with a final concentration of DMSO not exceeding 1% (v/v). […] The cell lysis was completed at room temperature within 60 minutes and the amount of Yopro bound to the DNA was determined by measurement using, for example, a CytoFluor II 96-well reader (PerSeptive Biosystems). IC50 can be determined by computer aided system using the following formula: IC50=[(ABS test−ABS start)/(ABS control−ABS start)]×100 wherein ABS was absorption.

[3] = Metabolic stability in human liver microsomes; format: in vitro ADME; details: human liver microsomes 0.5 mg/mL, compound 1 μM
Description: Metabolic Experiment of Liver Microparticle.
Experiments in microsomes: Human liver microsomes: 0.5 mg/mL, Xenotech; Rat liver microsomes: 0.5 mg/mL, Xenotech; Coenzyme (NADPH/NADH): 1 mM, Sigma Life Science; Magnesium chloride: 5 mM, 100 mM phosphate buffer (pH 7.4).
Preparation of phosphate buffer (100 mM, pH7.4): A pre-formulated 0.5M potassium dihydrogen phosphate (150 mL) was mixed with 0.5M dibasic potassium phosphate (700 mL). The pH of the mixture was adjusted to 7.4 with 0.5M dibasic potassium phosphate solution. The mixture was diluted 5-fold with ultrapure water before use, and magnesium chloride was added to obtain a phosphate buffer (100 mM) containing 100 mM potassium phosphate, 3.3 mM magnesium chloride, pH 7.4.
A NADPH regeneration system solution (containing 6.5 mM NADP, 16.5 mM G-6-P, 3 U/mL G-6-PD, 3.3 mM magnesium chloride) was prepared and placed on wet ice prior to use.
Preparation of stop solution: acetonitrile solution containing 50 ng/mL propranolol hydrochloride and 200 ng/mL tolbutamide (internal standard). 25057.5 μL of phosphate buffer (pH 7.4) was taken into a 50 mL centrifuge tube, to which 812.5 μL human liver microsomes were added, and mixed to obtain a liver microsome dilution solution with a protein concentration of 0.625 mg/mL.
Incubation of the samples: The stock solution of the respective compound was respectively diluted to 0.25 mM with an aqueous solution containing 70% acetonitrile, and used as a working solution, ready for use. 398 μL of the dilution solution of human liver microsomes or rat liver microsome were added to a 96-well incubation plate (N=2), respectively, and 2 μL of 0.25 mM working solution was added and mixed.
Metabolic stability assay: 300 μL of pre-chilled stop solution was added to each well of a 96-well deep well plate and placed on ice as a stop plate. The 96 well incubation plate and NADPH regeneration system were placed in a 37° C. water bath box, shaken at 100 rpm and pre-incubated for 5 min. 80 μL of incubation solution was taken out from each well of the incubation plate and added to the stop plate, mixed, and replenished with 20 μL of NADPH regeneration system solution as a 0-min sample. 80 μL of NADPH regeneration system solution was added to each well of the incubation plate to start the reaction and start counting. […] 100 μL of the supernatant was added to a 96-well plate to which 100 μL of distilled water was previously added, mixed, and analyzed by LC-MS/MS.
Data analysis: The peak areas of the corresponding compound and internal standard were detected by LC-MS/MS system, and the ratio of the peak area of the compound to the internal standard was calculated.

Row | CLint [3] [µL/min/mg] | t1/2 [3] [h] | SMILES | IC50 [1] [nM] | IC50 [2] [nM]
1 |  |  | CC1Oc2cc(cnc2N)-c2c(nn(C)c2C#N)CN(C)C(=O)c2ccc(F)cc21 (racemic) [Compound 72] | 1 to 100 | < 1
2 |  |  | CC1Oc2cc(cnc2N)-c2c(nn(C)c2C#N)CN(C)C(=O)c2ccc(F)cc21 (stereo not drawn) [Compound 18] | 1 to 100 | < 1
3 |  |  | CC1Oc2cc(cnc2N)-c2c(nn(C)c2C#N)CN(C)C(=O)c2ccc(F)cc21 (stereo not drawn) [Compound 28] | 1 to 100 | < 1
4 | 9.7 | 2.377 | [2H]C([2H])([2H])n1nc2c(c1C#N)-c1cnc(N)c(c1)OC(C)c1cc(F)ccc1C(=O)N(C)C2 (stereo not drawn) [Compound 28] |  | 
5 |  |  | CC1Oc2cc(cnc2N)-c2c(nn(C)c2C#N)CN(C)C(=O)c2ccc(F)cc21 (stereo not drawn) [Compound 45] | 1 to 100 | < 1
6 |  |  | CC1Oc2cc(cnc2N)-c2c(nn(C)c2C#N)CN(C)C(=O)c2ccc(F)cc21 (stereo not drawn) [Compound 58] | 1 to 100 | < 1
7 |  |  | CC1Oc2cc(cnc2N)-c2c(nn(C)c2C#N)CN(C)C(=O)c2ccc(F)cc21 (stereo not drawn) [Compound 76] | 1 to 100 | < 1
8 | 11.8 | 1.952 | C[C@H]1Oc2cc(cnc2N)-c2c(nn(C)c2C#N)CN(C)C(=O)c2ccc(F)cc21 [PF-06463922, reference compound] | 1 to 100 | < 1
